Source: US6288277A, “Benzylamine and phenylethylamine derivatives, processes for preparing the same and their use as medicaments” (Boehringer Ingelheim Pharma KG, priority 1997, dated 2001)
Counter-ions that a name gives are not always drawn.

The compounds below were run against LTB4-receptor (Homo sapiens, UniProt Q15722) (assay: Ki (LTB4-receptor; tests as described in WO 93/16036, pages 15 to 17)).
Sequence of LTB4-receptor (Q15722 whole entry): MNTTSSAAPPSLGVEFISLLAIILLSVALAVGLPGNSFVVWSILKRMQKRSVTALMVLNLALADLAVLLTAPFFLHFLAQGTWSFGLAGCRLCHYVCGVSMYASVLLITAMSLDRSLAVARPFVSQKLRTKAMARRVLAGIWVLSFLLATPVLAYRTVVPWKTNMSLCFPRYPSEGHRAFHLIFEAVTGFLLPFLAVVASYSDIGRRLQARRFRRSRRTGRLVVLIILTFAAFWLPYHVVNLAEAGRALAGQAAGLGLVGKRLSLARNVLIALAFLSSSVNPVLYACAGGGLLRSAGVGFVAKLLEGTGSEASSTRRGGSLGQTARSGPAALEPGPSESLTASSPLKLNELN
Assay type: binding
Work on CC(C)(c1ccccc1)c1ccc(OCc2cccc(COc3ccc(CN)cc3)c2)cc1 yielded a Ki of 0.0162 µM. NCc1ccc(OCc2cccc(COc3cccc(C(=O)c4ccccc4)c3)c2)cc1 was tested, and the Ki was 0.0138 µM. NCc1ccc(OCc2cccc(COc3ccc(C4(c5ccc(O)cc5)CCC4)cc3)c2)cc1 gave a Ki of 0.0111 µM. CC(c1ccc(O)cc1)c1ccc(OCc2cccc(COc3ccc(CN)cc3)c2)cc1 (stereo not drawn) gave a Ki of 0.0215 µM. In the case of NCc1ccc(OCc2cccc(COc3ccc(S(=O)(=O)c4ccc(O)cc4)cc3)c2)cc1, the Ki is reported as 0.0019 µM. Work on NCc1ccc(OCc2cccc(COc3ccc(Sc4ccc(O)cc4)cc3)c2)cc1 yielded a Ki of 0.0287 µM. In the case of NCc1ccc(OCc2cccc(COc3ccc([S+]([O-])c4ccc(O)cc4)cc3)c2)cc1 (stereo not drawn), the Ki is reported as 0.0016 µM. Compound CC(C)(c1ccc(O)cc1)c1ccc(OCc2cccc(COc3ccc(CN)cc3)c2F)cc1 has a Ki of 0.0279 µM. With CC(C)(c1ccc(OCc2cccc(COc3ccc(CN)cc3)c2)cc1)c1ccc(O[C@@H]2O[C@H](CO)[C@@H](O)[C@H](O)[C@H]2O)cc1 the Ki was 0.00055 µM. Compound NCc1ccc(OCc2cccc(COc3ccc(Oc4ccc(O)cc4)cc3)c2)cc1 has a Ki of 0.0597 µM. In the case of Cc1cc(C(C)(C)c2ccc(OCc3cccc(COc4ccc(CN)cc4)c3)c(C)c2)ccc1O, the Ki is reported as 0.0325 µM. Work on CC(C)(c1ccc(O)cc1)c1ccc(C(C)(C)c2ccc(OCc3cccc(COc4ccc(CN)cc4)c3)cc2)cc1 yielded a Ki of 0.0508 µM. With CCOC(=O)CCC(C)(c1ccc(O)cc1)c1ccc(OCc2cccc(COc3ccc(CN)cc3)c2)cc1 (stereo not drawn) the Ki was 0.0149 µM. In the case of CC(CCC(=O)O)(c1ccc(O)cc1)c1ccc(OCc2cccc(COc3ccc(CN)cc3)c2)cc1 (stereo not drawn), the Ki is reported as 0.0005 µM. With COC(=O)c1ccc(C(C)(C)c2ccc(OCc3cccc(COc4ccc(CN)cc4)c3)cc2)cc1 the Ki was 0.0114 µM. Work on CC(C)N(C(=O)c1ccc(C(C)(C)c2ccc(OCc3cccc(COc4ccc(CN)cc4)c3)cc2)cc1)C(C)C yielded a Ki of 0.0131 µM. CCOC(=O)NCc1ccc(OCc2cccc(COc3ccc(C(C)(C)c4ccc(O)cc4)cc3)c2)cc1 gave a Ki of 0.263 µM. CCOC(=O)C(C)(c1ccc(O)cc1)c1ccc(OCc2cccc(COc3ccc(CN)cc3)c2)cc1 (stereo not drawn) gave a Ki of 0.00285 µM. In the case of CCOC(=O)NCC(C)(C)c1ccc(OCc2cccc(COc3ccc(CN)cc3)c2)cc1, the Ki is reported as 0.0045 µM. For CC(C)(CN)c1ccc(OCc2cccc(COc3ccc(CN)cc3)c2)cc1, the Ki was 0.0673 µM. Work on CC(C)(C)Oc1ccc(OCc2cccc(COc3ccc(CN)cc3)c2)cc1 yielded a Ki of 0.0075 µM. With CC(C)(c1ccc(OCc2cccc(COc3ccc(CN)cc3)c2)cc1)c1ccc(C(=O)N2CCCCC2)cc1 the Ki was 0.00086 µM. CC(C)(c1ccccc1)c1ccc(OCc2cccc(COc3ccc(CN)cc3)c2)c(O)c1 showed a Ki of 0.0176 µM. With CC(C)(c1ccccc1)c1ccc(O)c(OCc2cccc(COc3ccc(CN)cc3)c2)c1 the Ki was 0.0219 µM. NCc1ccc(OCc2cccc(COc3ccc(Cc4ccc(O)cc4)cc3)c2)cc1 was tested, and the Ki was 0.0386 µM. NCc1ccc(OCc2cccc(COc3ccc(C(c4ccc(O)cc4)(C(F)(F)F)C(F)(F)F)cc3)c2)cc1 showed a Ki of 0.0218 µM. CC(C)(c1ccc(O)cc1F)c1ccc(OCc2cccc(COc3ccc(CN)cc3)c2)cc1F was tested, and the Ki was 0.0106 µM. Compound CC(C)(c1ccc(O)cc1)c1ccc(OCc2cccc(COc3ccc(CN)cc3)c2)c(O)c1 has a Ki of 0.0024 µM. Work on CC(C)(c1ccccc1)c1ccc(OCc2cccc(COc3ccc(CCN)cc3)c2)cc1 [2-[4-[[3-[[4-[1-phenyl-1-methylethyl]phenoxy]methyl]phenyl]methoxy]]-ethylamine hydrochloride] yielded a Ki of 0.0306 µM. CC(C)(c1ccc(O)cc1)c1ccc(OCc2cccc(COc3ccc(CN)cc3)c2)cc1 [4-[[3-[[4-[1-(4-Hydroxyphenyl)-1-methylethyl]phenoxy]methyl]phenyl]methoxy]-benzylamine hydrochloride] gave a Ki of 0.0157 µM.
